{"source": "patent US4348401A", "about": "“N-Phenoxyalkylpiperidine derivatives” (Boehringer Mannheim GmbH, priority 1979, dated 1982)", "tested_on": "bronchospasm", "assay": "inhibition of antigen-induced bronchospasm (Br Sp), passively sensitized guinea pigs, Konzett and Rossler method as modified by Collier", "format": "in vivo, guinea pig", "settings": "5 minutes before antigen, 3 minutes after antigen, vs control group", "procedure": "In animals narcotized with 40 mg. sodium pentobarbital/kg. body weight, a Y cannula is introduced into the trachea and a venous cannula is introduced in the jugular vein. A cannula introduced in the carotid artery leads to a measurement chamber (Statham, P 23 Db), with which the arterial pressure is recorded via a direct-current voltage potential measuring bridge. Using a respiratory pump, rats are given an air volume, depending upon the size of the animal, of 1 to 2 ml. 64 times and guinea pigs of 7 to 15 ml. 72 times per minute. […] Upon the appearance of a bronchospasm, initiated by the intravenous administration of the antigen, in the case of the respiratory volume remaining the same, all of the supplied volume of air can no longer flow into the lungs and part of it flows off through a side arm via a valve. The method developed by the firm Basile differs from the method originally described by Konzett and Rossler in that this air volume is measured indirectly via the rate of flow with the help of a thermoelement. The strength of a bronchospasm can then be recorded as a percentage reduction of the available bronchial volume. The theoretically maximum possible bronchospasm is obtained by closing the respiration tube on the animal so that all of the air supplied flows off through the valve.\nEvery 30 seconds, the valve is closed for 8 seconds by a relay and the total volume is pumped into the lungs in order again to expand the bronchi and alveoli and thus to make possible a sufficient gas exchange. The percentage decrease of the available bronchial volume (X) is calculated according to the following equation: [formula] wherein a is the amplitude of the recorder in mm. at the commencement of the experiment, b is the height of the amplitude in mm. at a definite point of time and m is the maximum amplitude in mm. after closing the respiration tube on the animal.\nThe antigen is 2×crystallized ovalbumin. Equal amounts of a solution of the antigen in physiological sodium chloride solution and complete Freund's adjuvant are emulsified and injected intramuscularly in an amount of 2×0.15 ml. to male guinea pigs. The animals are bled and the pooled serum is stored at -20° C.\nThe compounds according to the present invention are administered intravenously 5 minutes before administration of the antigen.", "data": [{"smiles": "COC(=O)c1ccccc1OCCCN1CCC(NC(=O)c2ccccc2)CC1", "note": "[Example 2a, methyl 2-[3-(4-benzamidopiperidino)-propoxy]-benzoate]", "values": [{"measurement": "% inhibition Br Sp", "setting": "dosage 3.0 mg/kg i.v.", "value": 71, "unit": "%"}]}, {"smiles": "NC(=O)c1ccccc1OCCCN1CCC(NC(=O)c2ccccc2)CC1", "note": "[Example 2b, 2-[3-(4-benzamidopiperidino)-propoxy]-benzamide]", "values": [{"measurement": "% inhibition Br Sp", "setting": "dosage 0.38 mg/kg i.v.", "value": 67, "unit": "%"}]}, {"smiles": "O=C(NC1CCN(CCCOc2ccccc2C(=O)O)CC1)c1ccccc1", "note": "[Example 7, 2-[3-(4-Benzamidopiperidino)-propoxy]-benzoic acid]", "values": [{"measurement": "% inhibition Br Sp", "setting": "dosage 1.5 mg/kg i.v.", "value": 45, "unit": "%"}]}, {"smiles": "O=C(NC1CCN(CCCOc2ccccc2-c2nnn[nH]2)CC1)c1ccccc1", "note": "[Example 9, 5-{2-[3-(4-Benzamidopiperidino)-propoxy]-phenyl}-1H-tetrazole]", "values": [{"measurement": "% inhibition Br Sp", "setting": "dosage 0.1 mg/kg i.v.", "value": 56, "unit": "%"}]}, {"smiles": "Cc1ccccc1C(=O)NC1CCN(CCCOc2ccccc2-c2nnn[nH]2)CC1", "note": "[Example 10g, 5-{2-{3-[4-(2-methylbenzamido)-piperidino]-propoxy}-phenyl}-1H-tetrazole]", "values": [{"measurement": "% inhibition Br Sp", "setting": "dosage 0.75 mg/kg i.v.", "value": 71, "unit": "%"}]}, {"smiles": "Cn1c(=O)c2[nH]cnc2n(C)c1=O", "note": "[aminophylline, reference compound]", "values": [{"measurement": "% inhibition Br Sp", "setting": "dosage 24 mg/kg i.v.", "value": 29, "unit": "%"}]}]}
